Assay [1] concerns Enterobacter cloacae (ATCC 13047). The experiment in a line: Bacterial proliferation assay, E. cloacae. The assay is classed as cell-based. The text has this: (§1) Bacterial Strains: Enterococcus faecium—(Orla-Jensen) Schleifer and Kilpper-Balz strain NCTC 7171 (ATCC 19434); Drug sensitive Staphylococcus aureus—Rosenbranch strain Seattle 1945 (ATCC 25923); Methicillin resistant S. aureus (MRSA)—Rosenbach strain HPV107 (ATCC BAA-44); Klebsiella Pneumonia—(Schroeter) Trevisan strain NCTC 9633 (ATCC 13883); Acinetobacter baumannii—Bouvet and Grimont strain 2208 (ATCC 19606); Pseudomonas aeruginosa—(Schroeter) Migula strain NCTC 10332 (ATCC 10145); Enterobacter cloacae—E. cloacae, subsp. cloacae (Jordan) Hormaeche and Edwards strain CDC 442-68 (ATCC 13047).
(§2) Growth Media: All bacteria were grown in Brain Heart Infusion (BHI) broth/agar (Becton, Dickinson and Company). All liquid cultures were grown in BHI media supplemented with 25 mg/L Ca^2+ and 12.5 mg/L Mg^2+ to mimic free physiological concentrations of these cations. A 10 mg/mL Ca^2+ stock solution was prepared by dissolving 3.68 g of CaCl2.2H2O in 100 mL of deionized water, and a 10 mg/mL Mg^2+ stock solution was prepared by dissolving 8.36 g of MgCl2.6H2O in 100 mL deionized water. Both stock solutions were filter-sterilized using 0.2 μm pore size cellulose-acetate filters. 2.5 mL of the sterile 10 mg/mL Ca^2+ stock and 1.25 mL of the sterile 10 mg/mL Mg^2+ stock solutions were added per 1 L of autoclaved BHI medium to obtain 25 mg/L Ca^2+ and 12.5 mg/L Mg^2+ ions, respectively.
(§3) General Assay Protocol: Stock bacterial cultures were streaked onto BHI agar plates and grown overnight at 37° C. Fresh aliquots of broth were inoculated with single bacterial colonies and the cultures were grown overnight at 37° C. with shaking (240 rpm) in cation adjusted BHI media. The following morning, the overnight cultures were sub-cultured (1:5 dilution) into fresh aliquots of cation adjusted BHI media and grown at 37° C. for 1-2 hours with shaking. After 2 h, cultures were diluted into fresh media to achieve final OD600 readings of 0.017. Aliquots of these diluted cultures (30 μL) were added to clear, flat-bottom, 384-well polystyrene plates that were stamped with 0.5 μL of test compounds in 20 μL media. […] Plates were sealed with “Breathe Easy” oxygen permeable membranes (Diversified Biotech) and left to incubate at 37° C. without shaking (stagnant assay). OD600 nm readings were taken at either 6-8 h (S. aureus, MRSA, K. pneumonia, E. cloacae, and P. aeruginosa) or 24 h (E. faecium and A. baumannii). A second set of baseline control plates were prepared analogously, but without any bacteria added, to correct for possible compound absorbance and/or precipitation. Plates were then read at 600 nm using a Molecular Devices SpectraMax Plus384 microplate reader. […] Results presented represent the averages of EC50 values obtained from at quadriplicate (duplicate of duplicate) replicates.

Assay [2] relates to Methicillin resistant S. aureus (MRSA) (ATCC BAA-44). Description: Bacterial proliferation assay, MRSA. The assay is classed as cell-based, Staphylococcus aureus. Conditions: Staphylococcus aureus.
Source text: as §1, §2, §3

Assay [3] concerns Drug sensitive Staphylococcus aureus (ATCC 25923). Description: Bacterial proliferation assay, drug sensitive S. aureus. In kind it is cell-based.
Source text: as §1, §2, §3

Assay [4] relates to Enterococcus faecium (ATCC 19434). Description: Bacterial proliferation assay, E. faecium. In kind it is cell-based.
Source text: as §1, §2, §3

The subject of assay [5] is Klebsiella Pneumonia (ATCC 13883). The experiment in a line: Bacterial proliferation assay, K. pneumoniae. The assay is classed as cell-based.
Source text: as §1, §2, §3

Assay [6] concerns Pseudomonas aeruginosa (ATCC 10145). Description: Bacterial proliferation assay, P. aeruginosa. In kind it is cell-based.
Source text: as §1, §2, §3

Where [7] appears, read: ATCC13047, read-out: Bacterial Proliferation EC50 E. cloacae.
Setting [8] is: ATCC13047, read-out: log(EC50) Bacterial Proliferation Assay E. cloacae (converted).
Setting [9] is: read-out: log(EC50) Bacterial Proliferation Assay S. aureus Resistant (converted).
Where [10] appears, read: ATCC25923, read-out: Bacterial Proliferation EC50 S. aureus Sensitive.
Setting [11] is: ATCC25923, read-out: log(EC50) Bacterial Proliferation Assay S. aureus Sensitive (converted).
Where [12] appears, read: ATCC19434, 24 h, read-out: Bacterial Proliferation EC50 E. faecium.
[13] abbreviates: ATCC19434, read-out: log(EC50) Bacterial Proliferation Assay C. faecium (converted).
Setting [14] is: ATCC13883, read-out: Bacterial Proliferation EC50 K. pneumoniae.
Setting [15] is: ATCC13883, read-out: log(EC50) Bacterial Proliferation Assay K. pneumoniae (converted).
Setting [16] is: ATCC10145, read-out: Bacterial Proliferation EC50 P. aeruginosa.
[17] abbreviates: ATCC10145, read-out: log(EC50) Bacterial Proliferation Assay P. aeruginosa (converted).
[18] abbreviates: ATCC13047, OD600 at 6-8 h, read-out: Bacterial Proliferation EC50 E. cloacae.
[19] abbreviates: ATCC13047, log of EC50 (μM scale), with standard deviation, read-out: log(EC50) Bacterial Proliferation Assay E. cloacae (converted).
Where [20] appears, read: MRSA, log of EC50 (μM scale), with standard deviation, read-out: log(EC50) Bacterial Proliferation Assay S. aureus Resistant (converted).
The mark [21] stands for this setting: ATCC25923, OD600 at 6-8 h, read-out: Bacterial Proliferation EC50 S. aureus Sensitive.
[22] abbreviates: ATCC25923, log of EC50 (μM scale), with standard deviation, read-out: log(EC50) Bacterial Proliferation Assay S. aureus Sensitive (converted).
The mark [23] stands for this setting: ATCC19434, OD600 at 24 h, read-out: Bacterial Proliferation EC50 E. faecium.
Setting [24] is: ATCC19434, log of EC50 (μM scale), with standard deviation, read-out: log(EC50) Bacterial Proliferation Assay C. faecium (converted).
[25] abbreviates: ATCC13883, OD600 at 6-8 h, read-out: Bacterial Proliferation EC50 K. pneumoniae.
Setting [26] is: ATCC13883, log of EC50 (μM scale), with standard deviation, read-out: log(EC50) Bacterial Proliferation Assay K. pneumoniae (converted).
[27] abbreviates: ATCC10145, OD600 at 6-8 h, read-out: Bacterial Proliferation EC50 P. aeruginosa.
The mark [28] stands for this setting: ATCC10145, log of EC50 (μM scale), with standard deviation, read-out: log(EC50) Bacterial Proliferation Assay P. aeruginosa (converted).

The structures appear in SMILES notation. Read-outs that look alike come from different tables or passages of the source.

These results are taken from patent US20210395210A1, “INHIBITION OF BACTERIAL CHAPERONIN SYSTEMS” (THE TRUSTEES OF INDIANA UNIVERSITY, priority 2018, published 2021).

Regarding `CN[C@H](CC(C)C)C(=O)N[C@H]1C(=O)N[C@@H](CC(N)=O)C(=O)N[C@H]2C(=O)N[C@H]3C(=O)N[C@H](C(=O)N[C@H](C(=O)O)c4cc(O)cc(O)c4-c4cc3ccc4O)[C@H](O)c3ccc(c(Cl)c3)Oc3cc2cc(c3O[C@@H]2O[C@H](CO)[C@@H](O)[C@H](O)[C@H]2O[C@H]2C[C@](C)(N)[C@H](O)[C@H](C)O2)Oc2ccc(cc2Cl)[C@H]1O` [Vancomycin, vancomycin, reference compound], the EC50 in assay [1] (setting [7]) is above 100 µM; in assay [1] (setting [8]), above 100 µM; in assay [2] (read-out: Bacterial Proliferation EC50 S. aureus Resistant), 0.52 µM; in assay [2] (setting [9]) it was 0.513 µM; in assay [3] (setting [10]), 0.67 µM; in assay [3] (ATCC25923, read-out: S. aureus Proliferation & Biofilm Assay EC50 Planktonic Growth) it was 0.67 µM. For the same compound, the EC50 in assay [3] (setting [11]) was 0.661 µM; in assay [4] (setting [12]) it was 0.6 µM; in assay [4] (setting [13]) it was 0.589 µM; in assay [5] (setting [14]), above 100 µM; in assay [5] (setting [15]), above 100 µM; in assay [6] (setting [16]), above 100 µM. The EC50 in assay [6] (setting [17]) is above 100 µM.
On to `O=C(Nc1cccc(Cl)c1)c1ccccc1O` [Compound 12, N-(3-Chlorophenyl)-2-hydroxybenzamide], for which the EC50 in assay [1] (setting [18]) is above 100 µM; in assay [1] (setting [19]) it was above 100 µM; in assay [2] (MRSA, OD600 at 6-8 h, read-out: Bacterial Proliferation EC50 S. aureus Resistant), 4.2 µM; in assay [2] (setting [20]) it was 4.17 µM; in assay [3] (setting [21]) it was 3.1 µM; in assay [3] (setting [22]), 3.09 µM. The EC50 in assay [4] (setting [23]), in assay [4] (setting [24]), in assay [5] (setting [25]), in assay [5] (setting [26]), in assay [6] (setting [27]) and in assay [6] (setting [28]) was above 100 µM each time.
As to `COc1ccccc1C(=O)Nc1ccccc1` [Compound 44, 2-Methoxy-N-phenylbenzamide], the EC50 in assay [1] (setting [18]), in assay [1] (setting [19]), in assay [2] (setting [20]), in assay [3] (setting [21]), in assay [3] (setting [22]) and in assay [4] (setting [23]) was above 100 µM each time. Further, the EC50 in assay [4] (setting [24]), in assay [5] (setting [25]), in assay [5] (setting [26]), in assay [6] (setting [27]) and in assay [6] (setting [28]) was above 100 µM in each case.
Consider `COc1c(Br)cc(Br)cc1C(=O)Nc1ccc(Sc2nc3ccccc3s2)c(Cl)c1` [Compound 29, N-(4-(Benzo[d]thiazol-2-ylthio)-3-chlorophenyl)-3,5-dibromo-2-methoxybenzamide], for which the EC50 in assay [1] (setting [18]), in assay [1] (setting [19]), in assay [2] (setting [20]), in assay [3] (setting [21]), in assay [3] (setting [22]) and in assay [4] (setting [23]) was above 100 µM in each case. In addition, the EC50 in assay [4] (setting [24]), in assay [5] (setting [25]), in assay [5] (setting [26]), in assay [6] (setting [27]) and in assay [6] (setting [28]) was above 100 µM each time.
Take `Cc1cc(C(C#N)c2ccc(Cl)cc2)c(Cl)cc1NC(=O)c1cc(I)cc(I)c1O` (stereo not drawn) [Closantel, closantel, reference compound]: the EC50 in assay [1] (setting [7]) is above 100 µM; in assay [1] (setting [8]) it was above 100 µM; in assay [2] (setting [9]) it was 0.468 µM; in assay [3] (setting [10]), 0.47 µM; in assay [3] (setting [11]), 0.468 µM; in assay [4] (setting [12]), 1.2 µM. The EC50 in assay [4] (setting [13]) was 1.23 µM; in assay [5] (setting [14]), above 100 µM; in assay [5] (setting [15]) it was above 100 µM; in assay [6] (setting [16]) it was above 100 µM; in assay [6] (setting [17]), above 100 µM.
For `COc1c(Br)cccc1C(=O)Nc1ccc(Sc2nc3ccccc3s2)c(Cl)c1` [Compound 30, N-(4-(Benzo[d]thiazol-2-ylthio)-3-chlorophenyl)-3-bromo-2-methoxybenzamide], the EC50 in assay [1] (setting [18]), in assay [1] (setting [19]), in assay [2] (setting [20]), in assay [3] (setting [21]), in assay [3] (setting [22]) and in assay [4] (setting [23]) was above 100 µM throughout. Moreover, the EC50 in assay [4] (setting [24]), in assay [5] (setting [25]), in assay [5] (setting [26]), in assay [6] (setting [27]) and in assay [6] (setting [28]) was above 100 µM in each case.
